Results reported in patent US20130237556A1, “BERBERINE ALKALOID AS A MEDICAMENT FOR PREVENTION AND TREATMENT OF NEURAL DISEASE” (HONG KONG BAPTIST UNIVERSITY, priority 2012, published 2013).
Where “and” joins values, the source holds several entries; their conditions need not be identical. Identical values can stand only once. Entries after “also recorded” stand apart in the source; their conditions may differ.

How the values were obtained:
TgCRND8 mice [1] = test: Aβ plaque burden by 4G8 immunostaining in cortex and hippocampus; type: in vivo, mouse
TgCRND8 mice [2] = test: Morphometric analysis of Aβ plaque size subsets; type: in vivo, mouse
TgCRND8 mice [3] = test: Aβ1-40 and Aβ1-42 sandwich ELISA in SDS and formic acid brain extracts; type: in vivo, mouse
TgCRND8 mice [4] = test: Microgliosis (Iba-1 burden) and astrocytosis (GFAP burden) immunohistochemistry; type: in vivo, mouse
TgCRND8 mice [5] = test: Western blot of brain homogenates (APP processing, tau phosphorylation, Akt/GSK3); type: in vivo, mouse
N2a-SwedAPP cells [6] = test: MTT toxicity assay; type: cell-based, mouse; details: up to 25 μM BBR, 24 h
Method: N2a-SweAPP cells are mouse neuroblastoma N2a cells stably transfected with human Swedish mutant APP695, and were gifts from Dr. Gopal Thinakaran (University of Chicago, Chicago Ill.). Cells were maintained in Dulbecco's modified Eagle's medium (DMEM) (Invitrogen, Carlsbad, Calif.) supplemented with 10% fetal bovine serum, penicillin and streptomycin and 200 μg/mL G418 (Invitrogen). Cells were cultured either in multiwell dishes or on 60 mm tissue culture plates in DMEM 10% with FBS Cell cultures were incubated at 37° C. in a humid 5% CO2/ 95% air environment. After cells were grown close to confluence, they were treated with/without different concentrations of BBR in DMEM (1% FBS) for 24 h. […] For the concentration-dependent treatment, cells were treated with serial dilutions of BBR ranging from 0-20 μM for 2 or 12 h prior to lysis with ice-cold RIPA buffer (20 mM Tris, pH 7.4, 150 mM NaCl, 1% triton-X, 0.5% sodium deoxycholate, EDTA) containing protease inhibitor cocktails (EMD chemicals, Philadelphia, Pa.) to find the optimal range of BBR. For the time-dependent application, cells were treated with a 20 μM concentration of BBR and incubated at time points ranging from 0-180 min prior to lysis. For immunofluorescent staining, N2a-SwedAPP cells were seeded on glass cover slips at a density of 0.5×10^5 viable cells per well in a 24-well plate. […]

N2a-SwedAPP cells [7] = test: Immunofluorescence of p-APP in endosomal compartments (Rab5); type: cell-based, mouse; details: 20 μM BBR, 3 h
Method: N2a-SweAPP cells are mouse neuroblastoma N2a cells stably transfected with human Swedish mutant APP695, and were gifts from Dr. Gopal Thinakaran (University of Chicago, Chicago Ill.). Cells were maintained in Dulbecco's modified Eagle's medium (DMEM) (Invitrogen, Carlsbad, Calif.) supplemented with 10% fetal bovine serum, penicillin and streptomycin and 200 μg/mL G418 (Invitrogen). Cells were cultured either in multiwell dishes or on 60 mm tissue culture plates in DMEM 10% with FBS Cell cultures were incubated at 37° C. in a humid 5% CO2/ 95% air environment. After cells were grown close to confluence, they were treated with/without different concentrations of BBR in DMEM (1% FBS) for 24 h. […]
For higher resolution microscopy, images were acquired using an Olympus IX70 Delta Vision microscopy system (Applied Precision, Issaquah, Wash.) with a 100×1.5 numerical aperture oil immersion lens. […] Subsequently serial Z-stacks of fluorescence images at 0.2-μm interval were acquired and deconvolved via a controlled iterative algorithm to generate high-resolution images of cells using […] (Applied Precision).

Aβ1-42 fibril formation = Aβ1-42 fibril formation (Homo sapiens, UniProt P05067); test: Inhibition of Aβ1-42 fibril formation in vitro; type: biochemical
Aβ1-42 fibril formation, sequence (P05067 672-713 limits assumed): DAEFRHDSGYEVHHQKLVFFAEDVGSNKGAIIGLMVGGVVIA

[8] = low dose BBR, SDS and FA fractions
[9] = BBR-treated TgCRND8, dose not stated (discussion)
[10] = BBR 25 and 100 mg/Kg/d vs vehicle
[11] = BBR- vs vehicle-treated TgCRND8
[12] = BBR-treated vs vehicle-treated TgCRND8, dose not stated

COc1ccc2cc3[n+](cc2c1OC)CCc1cc2c(cc1-3)OCO2 [BBR, 5,6-dihydro-9,10-dimethoxybenzo[g]-1,3-benzodioxolo[5,6-a]quinolizinium]
decrease in plaque burden compared with control animals (4G8) (TgCRND8 mice [1]; 25 mg/Kg/d): 60% and 61%
reduction in amyloid burden observed in this study (TgCRND8 mice [1]; range over BBR doses (discussion)): 43-63%
percentage reduction in large (>50) amyloid plaque subset (TgCRND8 mice [2]; 25 mg/Kg): 60%
percentage reduction in medium (25-50 μm) amyloid plaque subset (TgCRND8 mice [2]; 25 mg/Kg): 41%
percentage reduction in small sized (<25 μm) amyloid plaque subset (TgCRND8 mice [2]; 25 mg/Kg): 35%
percentage reduction in total amyloid plaque number (TgCRND8 mice [2]; 25 mg/Kg): 37%
reduction of amyloid plaque subsets (TgCRND8 mice [2]; 100 mg/Kg/d): 21-28%
diminution of Aβ1-40, SDS-soluble fraction (TgCRND8 mice [3]; 25 mg/Kg/d): 44%
reduction of Aβ1-40, formic acid extractable fraction (TgCRND8 mice [3]; 25 mg/Kg/d): 49%
reduction of Aβ1-42, formic acid extractable fraction (TgCRND8 mice [3]; 25 mg/Kg/d): 44%
diminution of Aβ1-40, SDS-soluble fraction (TgCRND8 mice [3]; 100 mg/Kg/d): 32%
reduction of Aβ1-40, formic acid extractable fraction (TgCRND8 mice [3]; 100 mg/Kg/d): 54%
reduction of Aβ1-42, formic acid extractable fraction (TgCRND8 mice [3]; 100 mg/Kg/d): 39%
Aβ1-42, SDS-soluble fraction (TgCRND8 mice [3]; BBR treatments (25 and 100 mg/Kg/d)): slight reduction
reduction of total extracted Aβ40 (TgCRND8 mice [3]; [8]): 44-49%
reduction of total extracted Aβ42 (TgCRND8 mice [3]; [8]): 22-43%
GFAP burden (astrocytosis) reduced to % relative to vehicle-treated (TgCRND8 mice [4]; 25 mg/Kg): 54%
Iba-1 burden (microgliosis) reduced to % relative to vehicle-treated (TgCRND8 mice [4]; 25 mg/Kg/d): 45%
GFAP burden (astrocytosis) reduced to % relative to vehicle-treated (TgCRND8 mice [4]; 100 mg/Kg): 28%
Iba-1 burden (microgliosis) reduced to % relative to vehicle-treated (TgCRND8 mice [4]; 100 mg/Kg/d): 27%
decrease in astrocytosis (TgCRND8 mice [4]; [9]): 54%
reduction in microgliosis (TgCRND8 mice [4]; [9]): 45%
CTF-α and β levels in brain homogenates (TgCRND8 mice [5]; 25 mg/Kg/day): significantly reduces
ADAM-10 level in brain homogenates (TgCRND8 mice [5]; [10]): no significant difference; also recorded: no effect
BACE-1 level in brain homogenates (TgCRND8 mice [5]; [10]): no effect; also recorded: no significant difference
full length APP level in brain homogenates (TgCRND8 mice [5]; [10]): no effect; also recorded: no significant difference
total GSK3α/β and total Akt (TgCRND8 mice [5]; BBR treatment): unaltered
IDE level in brain homogenates (TgCRND8 mice [5]; BBR vs vehicle): no significant difference; also recorded: does not affect
neprilysin level in brain homogenates (TgCRND8 mice [5]; BBR vs vehicle): no significant difference; also recorded: does not affect
p-Cdk5 (Y15) level (TgCRND8 mice [5]; [11]): no significant differences
p-JNK (Thr183/Tyr185) level (TgCRND8 mice [5]; [11]): no significant differences
phosphorylated Akt (p-Akt) level normalized to total Akt (TgCRND8 mice [5]; [11]): significantly high
tau-1 immunoreactivity (dephosphorylated tau) (TgCRND8 mice [5]; BBR-treated TgCRND8): significant increase
enhancement in phosphorylated GSK3α and β at Ser 21 and 9 (TgCRND8 mice [5]; BBR-treated vs vehicle-treated TgCRND8): 50%
decrease of phosphorylated tau at AT8 phosphoepitope (TgCRND8 mice [5]; [12]): 30%
decrease of phosphorylated tau at AT180 phosphoepitope (TgCRND8 mice [5]; [12]): 42%
decrease of phosphorylated tau at PHF-1 phosphoepitope (TgCRND8 mice [5]; [12]): 26%
total tau levels (TgCRND8 mice [5]; between the groups): No significant difference
decrease in the p-APP and p-CTFs (TgCRND8 mice [5]; high dose group vs vehicle): 27-28%
decrease in the p-APP and p-CTFs (TgCRND8 mice [5]; low dose group vs vehicle): 46-50%
cell viability (MTT) (N2a-SwedAPP cells [6]): did not affect cell viability
pAPP staining in the endosomal compartments (N2a-SwedAPP cells [7]): markedly reduced
IC50 (Aβ1-42 fibril formation; in vitro): 23.5 µM
effective in vitro concentration (approximately 20 μM) relative to brain levels (Aβ1-42 fibril formation; printed as 'times less than those found in the brain'): 23 times
